Results: patent US20040019024A1, “Use of vitamin d derivatives as bone resorption inhibitors” (priority 2000, published 2004)
Marks after values point to notes of the source that are not given here.

Key:
[1] = tested on: bone marrow cells of normal persons; assay: Osteoclast formation induced by 1α,25-dihydroxyvitamin D3 in normal human bone marrow cultures; format: cell-based; conditions: for osteoclast formation (average number of cells ± S.D.): normal marrow
Excerpt: Mononuclear cells were fractionated from bone marrow cells of healthy normal persons according to a method of Kurihara et al. (Endocrinology, vol. 126, 2733-2741 (1990)). Briefly, bone marrow cells were obtained from normal persons, a mononuclear cell fraction was collected by Hypaque-Ficoll density gradient centrifugation, the cell fraction was washed with α-Minimal Essential Media (α-MEM) 3 times, and the cells dispersed in α-MEM containing 10% fetal bovine serum. This mononuclear cell suspension was seeded in 100-mm tissue culture plates, the culture plate was kept for 90 minutes at 37° C. in a 4% CO2-air atmosphere, and the non-adherent cells were collected. The non-adherent mononuclear cells were dispersed into α-MEM culture medium containing 20% horse serum at 10^6 cells/ml, the cell suspension was seeded into 96-well multi plates at 100 μl/well. The capacity of the compound 11 (23S isomer) to inhibit osteoclast formation induced by 1α,25-dihydroxyvitamin D3 was evaluated as follows: Various concentrations of 1α,25-dihydroxyvitamin D3, various concentrations of compound 11 (23S isomer) or a combination of 10^−8 M 1α,25-dihydroxyvitamin D3 solution and various concentrations of compound 11 (23S isomer) solution were added to each well. The culture medium was replaced twice weekly and the cultures continued for 3 weeks at 37° C. in an atmosphere of 4% CO2-air. Osteoclasts that formed were identified by their capacity to bind the 23C6 antibody. The nuclei were counter stained with methyl green. Cells that reacted with the 23C6 antibody and had 3 or more nuclei were scored as osteoclasts.

[2] = tested on: bone marrow cells of Paget's disease of bone patients; assay: Osteoclast formation induced by 1α,25-dihydroxyvitamin D3 in bone marrow cultures from Paget's disease of bone patients; format: cell-based, human; conditions: for osteoclast formation (average number of cells ± S.D.): Paget's marrow
Excerpt: Mononuclear cells were fractionated from bone marrow cells of healthy normal persons according to a method of Kurihara et al. (Endocrinology, vol. 126, 2733-2741 (1990)). Briefly, bone marrow cells were obtained from normal persons, a mononuclear cell fraction was collected by Hypaque-Ficoll density gradient centrifugation, the cell fraction was washed with α-Minimal Essential Media (α-MEM) 3 times, and the cells dispersed in α-MEM containing 10% fetal bovine serum. This mononuclear cell suspension was seeded in 100-mm tissue culture plates, the culture plate was kept for 90 minutes at 37° C. in a 4% CO2-air atmosphere, and the non-adherent cells were collected. The non-adherent mononuclear cells were dispersed into α-MEM culture medium containing 20% horse serum at 10^6 cells/ml, the cell suspension was seeded into 96-well multi plates at 100 μl/well.
The capacity of the compound 11 (23S isomer) to inhibit osteoclast formation induced by 1α,25-dihydroxyvitamin D3 was evaluated as follows: Various concentrations of 1α,25-dihydroxyvitamin D3, various concentrations of compound 11 ([…]) solution were added to each well. The culture medium was replaced twice weekly and the cultures continued for 3 weeks at 37° C. in an atmosphere of 4% CO2-air. Osteoclasts that formed were identified by their capacity to bind the 23C6 antibody. The nuclei were counter stained with methyl green. Cells that reacted with the 23C6 antibody and had 3 or more nuclei were scored as osteoclasts.
Bone marrow cells were obtained from involved bones of patients with Paget's disease of bone and processed and cultured as described above for normal bone cells. The cultures were treated in an identical manner with 1α,25-dihydroxyvitamin D3 and/or compound 11 (23S isomer) as described in Example 1.
Bone marrow cultures were performed as described in Example 1, with the exception that different types of vitamin D antagonists were added to at varying concentrations to bone marrow cultures stimulated with 1α,25-dihydroxyvitamin D3. The bone marrow cells were taken from involved bones of patients with Paget's disease of bone and the cultures were performed as described in Example 2. There are two diastereoisomers, based on the asymmetric carbon at the 23 position, in compounds 13 and 16. The isomer having the shorter retention time on reverse phase HPLC analysis was the more polar isomer and the isomer having the longer retention time was the less polar isomer.

vitamin D deficient rats = assay: Bone resorption (serum calcium) induced by 1α,25-dihydroxyvitamin D3 in vitamin D deficient rats; format: in vivo, Wistar rats
Method: Four-week-old male Wistar rats purchased from Japan SLC (Shizuoka, in Japan) were used. The animals were kept in wire-net cages (three animals in a cage) and raised for 7 weeks with free access to a vitamin D-deficient diet (Ca, 0.0036%; P, 0.3%; Harlan Taklad Research Diet, Madison, Wis., U.S.A.) and drinking water (well water treated with hypochlorite of […]±0.2 ppm). Temperature was kept at 23±1° C. and the humidity at 55±10%. Five animals were used for each experimental group. The control animals received intravenously administered solvent (5% ethanol-0.1% Triton X-100-physiological saline solution), and the experimental animals were intravenously administered 1α,25-dihydroxyvitamin D3 at a dose of 0.25 μg/kg. For animals receiving vitamin D derivatives, compound 11 (23S isomer) was administered intravenously at a dose of 2 μg/kg, 10 μg/kg or 50 μg/kg, or the compound 11 (23S isomer) with or without 1α,25-dihydroxyvitamin D3 at a dose of 0.25 μg/kg. The volume was 2 ml/kg for each animal. 24 hours after administration, a blood sample was taken out from abdominal descending aorta under ether anesthesia, the serum was collected according to conventional methods, and the calcium concentration in the serum was measured. The calcium concentrations were measured according to OCPC-method (Am. J. Clin. Pathol., vol. 45, 290-296 (1966)) with an autoanalyzer (type 7070, manufactured by Hitachi Seisakusho).

In the case of `C=C1CC(CC(C)C2CCC3C(=CC=C4CC(O)CC(O)C4=C)CCCC32C)OC1=O` [compound 11 (23S isomer), (23S)-25-Dehydro-1α,25-Dihydroxyvitamin D3-26, 23-Lactone], the “osteoclast formation (average number of cells ± S.D.)” value ([1]; 10^−8 M 1α,25-dihydroxyvitamin D3 + compound 10^−6 M) was 20 ± 7 cells, the “osteoclast formation (average number of cells ± S.D.)” value ([1]; 10^−8 M 1α,25-dihydroxyvitamin D3 + compound 10^−7 M) was 33 ± 16 cells and the “osteoclast formation (average number of cells ± S.D.)” value ([1]; 10^−8 M 1α,25-dihydroxyvitamin D3 + compound 10^−8 M) was 44 ± 8 cells. The “osteoclast formation (average number of cells ± S.D.)” value ([1]; 10^−8 M 1α,25-dihydroxyvitamin D3 + compound 10^−9 M) was 55 ± 12 cells, the “osteoclast formation (average number of cells ± S.D.)” value ([1]; 10^−8 M 1α,25-dihydroxyvitamin D3 + compound 10^−10 M) was 80 ± 5 cells and the “osteoclast formation (average number of cells ± S.D.)” value ([1]; 10^−8 M 1α,25-dihydroxyvitamin D3 + compound 10^−11 M) was 85 ± 8 cells. The “osteoclast formation (average number of cells ± S.D.)” value ([1]; compound alone, 10^−6 M, 3 weeks) was 0 ± 0 cells, the “osteoclast formation (average number of cells ± S.D.)” value ([1]; compound alone, 10^−7 M, 3 weeks) was 0 ± 1 cells and the “osteoclast formation (average number of cells ± S.D.)” value ([1]; compound alone, 10^−8 M, 3 weeks) was 3 ± 2 cells. The “osteoclast formation (average number of cells ± S.D.)” value ([1]; compound alone, 10^−9 M, 3 weeks) was 5 ± 1 cells, the “osteoclast formation (average number of cells ± S.D.)” value ([1]; compound alone, 10^−10 M, 3 weeks) was 9 ± 5 cells and the “osteoclast formation (average number of cells ± S.D.)” value ([1]; compound alone, 10^−11 M, 3 weeks) was 17 ± 4 cells. For the same molecule, the “induction of osteoclast formation by the compound alone (in words)” value ([1]; normal marrow cultures) was “did not induce osteoclast formation”, the “osteoclast formation (average number of cells ± S.D.)” value ([2]; 10^−10 M 1α,25-dihydroxyvitamin D3 + compound 10^−6 M) was 1 ± 1 cells and the “osteoclast formation (average number of cells ± S.D.)” value ([2]; 10^−10 M 1α,25-dihydroxyvitamin D3 + compound 10^−7 M, listed as compound 11 (235 isomer)) was 14 ± 1 cells. The “osteoclast formation (average number of cells ± S.D.)” value ([2]; 10^−10 M 1α,25-dihydroxyvitamin D3 + compound 10^−8 M, listed as compound 11 (235 isomer)) was 63 ± 5 cells, the “osteoclast formation (average number of cells ± S.D.)” value ([2]; 10^−10 M 1α,25-dihydroxyvitamin D3 + compound 10^−9 M) was 125 ± 5 cells and the “osteoclast formation (average number of cells ± S.D.)” value ([2]; 10^−10 M 1α,25-dihydroxyvitamin D3 + compound 10^−10 M) was 155 ± 6 cells. For the same molecule, the “osteoclast formation (average number of cells ± S.D.)” value ([2]; 10^−10 M 1α,25-dihydroxyvitamin D3 + compound 10^−11 M) was 170 ± 13 cells, the “induction of osteoclast formation by the compound alone (in words)” value ([2]; Paget's marrow cultures) was “did not induce osteoclast formation” and the “osteoclast formation (average number of cells ± S.D.)” value ([2]; compound alone, 10^−6 M) was 1 ± 1 cells. For the same molecule, the “osteoclast formation (average number of cells ± S.D.)” value ([2]; compound alone, 10^−7 M) was 8 ± 2 cells, the “osteoclast formation (average number of cells ± S.D.)” value ([2]; compound alone, 10^−8 M) was 9 ± 3 cells and the “osteoclast formation (average number of cells ± S.D.)” value ([2]; compound alone, 10^−9 M) was 16 ± 2 cells. For the same molecule, the “osteoclast formation (average number of cells ± S.D.)” value ([2]; compound alone, 10^−10 M) was 20 ± 4 cells, the “osteoclast formation (average number of cells ± S.D.)” value ([2]; compound alone, 10^−11 M) was 29 ± 5 cells and the “effect on basal osteoclast formation (in words)” value ([2]; compound alone, Paget's marrow cultures) was “inhibited basal osteoclast formation”. For the same molecule, the “serum Ca concentration” value (vitamin D deficient rats; 0.25 μg/kg 1α,25-dihydroxyvitamin D3 + compound 2 μg/kg intravenously, 24 hours) was 5.31 ± 0.22 mg/100 ml serum, the “serum Ca concentration” value (vitamin D deficient rats; 0.25 μg/kg 1α,25-dihydroxyvitamin D3 + compound 10 μg/kg intravenously, 24 hours) was 4.97 ± 0.18^a mg/100 ml serum and the “serum Ca concentration” value (vitamin D deficient rats; 0.25 μg/kg 1α,25-dihydroxyvitamin D3 + compound 50 μg/kg intravenously, 24 hours) was 4.72 ± 0.21^b mg/100 ml serum. The “bone resorption induced by 1α,25-dihydroxyvitamin D3 (in words)” value (vitamin D deficient rats; 0.25 μg/kg 1α,25-dihydroxyvitamin D3 simultaneously with 2, 10 or 50 μg/kg compound) was “suppressed”, the “serum Ca concentration” value (vitamin D deficient rats; compound alone, 2 μg/kg intravenously, 24 hours after administration) was 4.61 ± 0.12 mg/100 ml serum and the “serum Ca concentration” value (vitamin D deficient rats; compound alone, 10 μg/kg intravenously, 24 hours after administration) was 4.67 ± 0.11 mg/100 ml serum. For the same molecule, the “serum Ca concentration” value (vitamin D deficient rats; compound alone, 50 μg/kg intravenously, 24 hours after administration) was 4.65 ± 0.18 mg/100 ml serum and the “serum calcium concentration after compound alone (in words)” value (vitamin D deficient rats; even at a dose of 50 μg/kg, 24 hours after administration) was “increased serum calcium concentrations were not observed”.
